From US20260315609A1, “MIXED VASOPRESSIN RECEPTOR AGONIST-ANTAGONIST FOR TREATING END-STAGE LIVER DISEASE AND COMPLICATIONS ASSOCIATED THEREOF” (FERRING B.V., priority 2022, published 2026)
Where two headings read alike, the source gives them in different places. Starred links: 1 amine or outer side, 2 acyl side, 3 side chain; linkers in the order of their positions; H or OH if unused. Positions of bridges follow the written chain, without caps; N, C: chain ends. Non-standard residues stand in square brackets, D forms with d. Residues, ends and D or L forms follow the SMILES beside them. Chains are numbered I, II in the order given. *: point of attachment. isoGln = NC(=O)[C@H](CCC(=O)[*:2])N[*:1]; εLys = N[C@@H](CCCCN[*:1])C(=O)[*:2]; Dab = NCC[C@H](N)C(=O)O; PhAc = O=C(Cc1ccccc1)*

What was measured:
[1] = PK of Compound 1, 6-hour intravenous infusion in healthy men and women (Period 1); type: in vivo, human
Procedure: The administered volume was recorded for each subject.
In some instances, endpoints of the study were: vital signs (e.g., supine blood pressure, pulse, and body temperature), electrocardiogram (ECG) (e.g., intervals, rhythm, and morphology), cardiac function (e.g., cardiac output using echocardiography), peripheral blood flow/tissue perfusion (e.g., by skin color), venous blood gases (e.g., lactate), urinary output, clinical chemistry, hematology, hemostasis, and urinalysis, adverse events (AEs) (e.g., type, frequency, and intensity), pharmacokinetics (e.g., AUC, AUCt, AUCτ, % Extrap AUC, Cmax, tmax, CL, Vz, t1/2, MRT, Vss, F, Ae, and CLR), and metabolite pattern in plasma and urine.

[2] = M1 formation, single dose subcutaneous infusion in rats; type: in vivo, rat; settings: s.c. infusion
Source text: The incision for the mini-pump was on the cranial right side of the spine, a trocar or hemostats may be inserted to create a subcutaneous pocket, and the pump inserted into the subcutaneous pocket with the delivery port of the mini-pump pointing cranially. The doses were given into mid-dorsal area via surgical implantation of the pump filled with test article. Following insertion of the implant, a 4 cm×4 cm area surrounding the pump will be delineated and designated as the test site. The test site will be delineated and remarked as necessary thereafter.
Blood samples were collected from each rat at various timepoints, including 0.25 hour (hr), 1 hr, 3 hr, 7 hr, 24 hr, 25 hr, 27 hr, and 29 hr.

[3] = tested on: CCl4-induced rat model of cirrhosis and ascites; assay: CCl4-induced cirrhosis and ascites rats, cohort 2 (single IV bolus), renal excretory function; type: in vivo; settings: 100 μg/kg IV
Procedure: Animals: 90 male Wistar rats (Charles River Laboratories, Espana S.A) weighing 200-220 grams at the time of receipt were subjected to a cirrhosis induction program; high dose CCl4 was administered by inhalation twice weekly (Monday and Friday) and phenobarbital (0.3 g/L) was added to drinking water. In some instances, liver damage in this model is caused by hepatotoxic CCl4 metabolites produced in the liver. In some instances, phenobarbital induction of the microsomal enzyme oxidizing system exaggerates the intensity of the hepatic necrosis. The data was collected from the treatment of 44 cirrhotic rats with ascites. Animals were allowed free access to food and water throughout the study.
The study consisted of 3 treatment cohorts, as detailed in Table 10. Animals developing and maintaining ascites for 2 weeks were randomly assigned to treatment groups. Ringer Braun saline solution was used as vehicle. IV bolus were administered via femoral veins.
Cohort 2: Animals were anesthetized and the left femoral artery and vein catheterized. Bladders were exposed by suprapubic incision and catheterized for urine collection. A priming dose of PAH (4 mg/animal) was administered via the jugular vein followed by a constant infusion (2 mL/hr) of Ringer solution containing 4 mg/mL PAH. After 30 minutes of infusion, a baseline 30 minute urine collection was obtained for urine volume, urine sodium content, urine creatinine content, and PAH measurements. In the middle of the 30 minute urine collection, a blood sample (0.8 mL) was obtained via the femoral artery catheter for PAH and creatinine measurements. […] Five 30 minute urine collections were performed over 150 minutes, with blood samples collected in the middle of each 30 minute urine collection. Following blood sampling, packed cells were reconstituted with Ringer solution and reinjected over a period of 3 minutes.

CC[C@H](C)[C@@H]1NC(=O)[C@H](Cc2ccccc2)NC(=O)[C@@H](N)CSSC[C@@H](C(=O)N2CCC[C@H]2C(=O)N[C@@H](CCNC(=O)[C@@H](N)CCCCNC(=O)[C@H](CCCCNC(C)=O)NC(=O)CC[C@H](NC(=O)[C@H](CCCNC(=N)N)NC(=O)[C@@H]2CCCN2C(=O)[C@H](C)NC(=O)[C@H](CC(N)=O)NC(=O)[C@H](CCC(N)=O)NC(=O)[C@H](Cc2ccccc2)NC(=O)[C@@H](Cc2ccc(OC)cc2)NC(=O)Cc2ccccc2)C(N)=O)C(=O)NCC(N)=O)NC(=O)[C@H](CC(N)=O)NC(=O)[C@H](CCC(N)=O)NC1=O [Compound 1, Glycinamide, L-cysteinyl-L-phenylalanyl-L-isoleucyl-L-glutaminyl-L-asparaginyl-L-cysteinyl-L-prolyl-N4-(phenylacetyl-O-methyl-D-tyrosyl-L-phenylalanyl-L-glutaminyl-L-asparaginyl-L-alanyl-L-prolyl-L-arginyl-L-isoglutamyl-N5-acetyl-L-lysyl-L-ε-lysyl)-L-2,4-diaminobutyryl-, cyclic (1→6)-disulfide] (I: H-CFIQNCP[Dab]G-NH2 / II: PhAc-[dY](Me)FQNAPR[isoGln]K(Ac)[εLys]; disulfide I:1-I:6; amide I:8-II:C)
CL renal ([1]; human, in vivo, iv, 0.1 mg, i.v. 0.1 mg, read-out: Renal CL, geometric mean (converted)): 14.5 mL/min | CL renal ([1]; human, in vivo, iv, 0.1 mg, i.v. 0.1 mg, read-out: Renal CL, mean (converted)): 14.5 mL/min | CL renal ([1]; human, in vivo, iv, 0.3 mg, i.v. 0.3 mg, read-out: Renal CL, geometric mean (converted)): 11 mL/min | CL renal ([1]; human, in vivo, iv, 0.3 mg, i.v. 0.3 mg, read-out: Renal CL, mean (converted)): 11 mL/min | CL renal ([1]; human, in vivo, iv, 0.45 mg, i.v. 0.45 mg, read-out: Renal CL, geometric mean (converted)): 14 mL/min | CL renal ([1]; human, in vivo, iv, 0.45 mg, i.v. 0.45 mg, read-out: Renal CL, mean (converted)): 14.8 mL/min | CL renal ([1]; human, in vivo, iv, 0.6 mg, i.v. 0.6 mg, read-out: Renal CL, geometric mean (converted)): 15.5 mL/min | CL renal ([1]; human, in vivo, iv, 0.6 mg, i.v. 0.6 mg, read-out: Renal CL, mean (converted)): 15.8 mL/min | CL renal ([1]; human, in vivo, iv, 0.9 mg, i.v. 0.9 mg, read-out: Renal CL, geometric mean (converted)): 14.8 mL/min | CL renal ([1]; human, in vivo, iv, 0.9 mg, i.v. 0.9 mg, read-out: Renal CL, mean (converted)): 15.8 mL/min | Vd ([1]; human, in vivo, iv, read-out: distribution volume (summary)): 15 to 20 L | terminal half-life (summary) ([1]; i.v.): about 1.5 hours | total clearance (summary) ([1]; i.v.): about 13 L/h | AUC, geometric mean ([1]; i.v. 0.1 mg): 6.96 ng·h/mL | AUC, mean ([1]; i.v. 0.1 mg): 7.01 ng·h/mL | Cmax, geometric mean ([1]; i.v. 0.1 mg): 1.18 ng/mL | Cmax, mean ([1]; i.v. 0.1 mg): 1.19 ng/mL | T1/2, harmonic mean ([1]; i.v. 0.1 mg): 1.2 h | Tot. CL, geometric mean ([1]; i.v. 0.1 mg): 14.4 L/h | Tot. CL, mean ([1]; i.v. 0.1 mg): 14.5 L/h | Vss, geometric mean ([1]; i.v. 0.1 mg): 21.7 L | Vss, mean ([1]; i.v. 0.1 mg): 21.8 L | tmax, mean ([1]; i.v. 0.1 mg): 5.4 h | tmax, median ([1]; i.v. 0.1 mg): 5.0 h | AUC, geometric mean ([1]; i.v. 0.3 mg): 24.6 ng·h/mL | AUC, mean ([1]; i.v. 0.3 mg): 24.9 ng·h/mL | Cmax, geometric mean ([1]; i.v. 0.3 mg): 4.45 ng/mL | Cmax, mean ([1]; i.v. 0.3 mg): 4.49 ng/mL | T1/2, harmonic mean ([1]; i.v. 0.3 mg): 1.2 h | Tot. CL, geometric mean ([1]; i.v. 0.3 mg): 12.2 L/h | Tot. CL, mean ([1]; i.v. 0.3 mg): 12.3 L/h | Vss, geometric mean ([1]; i.v. 0.3 mg): 14.5 L | Vss, mean ([1]; i.v. 0.3 mg): 15.0 L | tmax, mean ([1]; i.v. 0.3 mg): 5.2 h | tmax, median ([1]; i.v. 0.3 mg): 5.5 h | AUC, geometric mean ([1]; i.v. 0.45 mg): 34.1 ng·h/mL | AUC, mean ([1]; i.v. 0.45 mg): 34.5 ng·h/mL | Cmax, geometric mean ([1]; i.v. 0.45 mg): 6.20 ng/mL | Cmax, mean ([1]; i.v. 0.45 mg): 6.26 ng/mL | Tot. CL, geometric mean ([1]; i.v. 0.45 mg): 13.2 L/h | Tot. CL, mean ([1]; i.v. 0.45 mg): 13.3 L/h | Vss, geometric mean ([1]; i.v. 0.45 mg): 15.2 L | Vss, mean ([1]; i.v. 0.45 mg): 15.5 L | tmax, mean ([1]; i.v. 0.45 mg): 5.0 h | tmax, median ([1]; i.v. 0.45 mg): 5.0 h | AUC, geometric mean ([1]; i.v. 0.6 mg): 46.5 ng·h/mL | AUC, mean ([1]; i.v. 0.6 mg): 47.5 ng·h/mL | Cmax, geometric mean ([1]; i.v. 0.6 mg): 8.32 ng/mL | Cmax, mean ([1]; i.v. 0.6 mg): 8.45 ng/mL | Tot. CL, geometric mean ([1]; i.v. 0.6 mg): 12.9 L/h | Tot. CL, mean ([1]; i.v. 0.6 mg): 13.2 L/h | Vss, geometric mean ([1]; i.v. 0.6 mg): 15.4 L | Vss, mean ([1]; i.v. 0.6 mg): 16.3 L | tmax, mean ([1]; i.v. 0.6 mg): 5.4 h | tmax, median ([1]; i.v. 0.6 mg): 6.0 h | AUC, geometric mean ([1]; i.v. 0.9 mg): 71.8 ng·h/mL | AUC, mean ([1]; i.v. 0.9 mg): 72.5 ng·h/mL | Cmax, geometric mean ([1]; i.v. 0.9 mg): 12.7 ng/mL | Cmax, mean ([1]; i.v. 0.9 mg): 12.8 ng/mL | T1/2, harmonic mean ([1]; i.v. 0.9 mg): ~1.7 h | T1/2, mean ([1]; i.v. 0.9 mg): 2.0 h | Tot. CL, geometric mean ([1]; i.v. 0.9 mg): 12.5 L/h | Tot. CL, mean ([1]; i.v. 0.9 mg): 12.7 L/h | Vss, geometric mean ([1]; i.v. 0.9 mg): 15.3 L | Vss, mean ([1]; i.v. 0.9 mg): 15.5 L | tmax, mean ([1]; i.v. 0.9 mg): 5.3 h | tmax, median ([1]; i.v. 0.9 mg): 6.0 h | dose proportionality of AUC and Cmax ([1]; i.v., 0.1-0.9 mg): proportionality for both parameters | harmonic mean terminal half-life ([1]; i.v., dose groups other than 0.6 and 0.9 mg): 1.2 to 1.3 h | exposure (AUC, Cmax), women versus men ([1]; i.v., also s.c.): higher exposure in women than in men | terminal half-life ([1]; route not stated): 1.5 to 2 h | metabolised ([2]; rat, plasma, sc, 4.8 mg/kg, rats): < 20% | adverse events ([2]; rats and mini-pigs): No relevant adverse events were reported | Sodium Excretion ([3]; 0 min): 0.4 μEq/min | Urine Volume ([3]; 0 min): 8.4 µL/min | Sodium Excretion ([3]; 30 min): 1.1 μEq/min | Urine Volume ([3]; 30 min): 16.4 µL/min | Sodium Excretion ([3]; 60 min): 4.1 μEq/min | Urine Volume ([3]; 60 min): 26.5 µL/min | Sodium Excretion ([3]; 90 min): 5.3 μEq/min | Urine Volume ([3]; 90 min): 26.2 µL/min | Sodium Excretion ([3]; 120 min): 7.0 μEq/min | Urine Volume ([3]; 120 min): 32.3 µL/min | Sodium Excretion ([3]; 150 min): 7.2 μEq/min | Urine Volume ([3]; 150 min): 32.7 µL/min
